Results from patent publication US4713381A, “Oxodiazine compounds and pharmaceutical compositions thereof” (Yoshitomi Pharmaceutical Industries, Ltd., priority 1985, dated 1987).
Values after ≈ are worked out from the molar mass of the structure shown. Read-outs that look alike come from different tables or passages of the source.

Assays:
platelet aggregation [1] = assay: Effects on platelet aggregation in vitro (ADP-induced, rat platelet-rich plasma, Born type aggregometer); format: cell-based, rats; details: 2 min, read-out: 50% inhibitory concentrations (IC50)
Procedure: 1. Effects on platelet aggregation in vitro
Samples of blood are collected from rats weighing 400-450 g and mixed with a 1/10 volume of 3.8% sodium citrate solution. The citrated blood is centrifugated at 200×g for 10 minutes to yield platelet-rich plasma. Test compound is added to platelet-rich plasma thus obtained and maintained at 37° C. for 2 minutes. The platelet aggregation is induced by the addition of 10^-5 M adenosine diphosphate (final concentration) and measured with a Born type six channel aggregometer (Journal of Physiology, vol. 168, pp. 175-198, 1963.
50% inhibitory concentrations (IC50, μg/ml) as compared the control group are calculated. Aspirin and ticlopidine are employed as compounds for comparison.

platelet aggregation [2] = assay: Effects on platelet aggregation ex vivo (ADP-induced, rat platelet-rich plasma 2 hours after oral administration); format: in vivo; details: p.o., rats, after 2 hours, 10^-5 M adenosine diphosphate
Procedure: 2. Effects on platelet aggregation ex vivo
Test compound is orally administered to rats weighing 400-450 g. After 2 hours, samples of blood are collected from the rats and mixed with a 1/10 volume of 3.8% sodium citrate solution. The citrated blood is centrifugated at 200×g for 10 minutes to yield platelet-rich plasma. The platelet aggregation is induced by the addition of 10^-5 M adenosine diphosphate (final concentration) and measured with the same aggregometer as described in the above Method.
Percentage of inhibition as compared with the control group administered with the solvent are calculated.

[3] = rat platelet-rich plasma, 37° C., 2 minutes, 10^-5 M adenosine diphosphate

| IC50 (platelet aggregation [1]; [3]) | Compound | IC50 (platelet aggregation [1]; Rattus norvegicus, Platelet) | inhibition at 10 mg/kg (platelet aggregation [2]) |
| --- | --- | --- | --- |
| 1 µg/mL (≈ 4.34 µM) | Cc1nc2ccccn2c1C1=NNC(=O)CO1 [Example 1, 2-(2-methylimidazo[1,2-a]pyridin-3-yl)-4,6-dihydro-1,3,4-oxadiazin-5-one] | – | 75% |
| 1.9 µg/mL (≈ 7.78 µM) | Cc1nc2c(C)cccn2c1C1=NNC(=O)CO1 [Example 2, 2-(2,8-dimethylimidazo[1,2-a]pyridin-3-yl)-4,6-dihydro-1,3,4-oxadiazin-5-one] | – | – |
| 3 µg/mL (≈ 12.3 µM) | Cc1ccc2nc(C)c(C3=NNC(=O)CO3)n2c1 [Example 3, 2-(2,6-dimethylimidazo[1,2-a]pyridin-3-yl)-4,6-dihydro-1,3,4-oxadiazin-5-one] | – | – |
| 0.5 µg/mL (≈ 2.12 µM) | Cc1nc2sccn2c1C1=NNC(=O)CO1 [Example 5, 2-(6-methylimidazo[2,1-b]thiazol-5-yl)-4,6-dihydro-1,3,4-oxadiazin-5-one] | – | 54% |
| 0.6 µg/mL (≈ 2.54 µM) | Cc1c(C2=NNC(=O)CO2)sc2nccn12 [Example 17, 2-(3-Methylimidazo[2,1-b]thiazol-2-yl)-4,6-dihydro-1,3,4-oxadiazin-5-one] | – | 54% |
| > 300 µg/mL | Clc1ccccc1CN1CCc2sccc2C1 [Ticlopidine, ticlopidine, reference compound] | – | – |

The next lines start with the compound.

| Compound | IC50 (platelet aggregation [1]; [3]) | IC50 (platelet aggregation [1]; Rattus norvegicus, Platelet) | inhibition at 10 mg/kg (platelet aggregation [2]) |
| --- | --- | --- | --- |
| CC(=O)Oc1ccccc1C(=O)O [Aspirin, reference compound] | – | > 300 µg/mL | – |
| O=C1COC(c2csc3nccn23)=NN1 [Example 16, 2-(Imidazo[2,1-b]thiazol-3-yl)-4,6-dihydro-1,3,4-oxadiazin-5-one] | – | – | 60% |
| O=C1COC(c2ccc3nccn3c2)=NN1 [Example 18, 2-(Imidazo[1,2-a]pyridin-6-yl)-4,6-dihydro-1,3,4-oxadiazin-5-one] | 0.4 µg/mL (≈ 1.85 µM) | – | 65% |
| Cl.O=C1COC(c2cccn3ccnc23)=NN1 [Example 19, 2-(Imidazo[1,2-a]pyridin-8-yl)-4,6-dihydro-1,3,4-oxadiazin-5-one hydrochloride] | – | 1 µg/mL | – |
